Experimental findings from ChEMBL document CHEMBL1201862, “PubChem BioAssay data set” (2004) are described below.

Calls of active or inactive are those of the source.

For assay [1], the target named is T1, Short transient receptor potential channel 4 (Mus musculus, UniProt Q9QUQ5).
T1 sequence (Q9QUQ5 whole entry): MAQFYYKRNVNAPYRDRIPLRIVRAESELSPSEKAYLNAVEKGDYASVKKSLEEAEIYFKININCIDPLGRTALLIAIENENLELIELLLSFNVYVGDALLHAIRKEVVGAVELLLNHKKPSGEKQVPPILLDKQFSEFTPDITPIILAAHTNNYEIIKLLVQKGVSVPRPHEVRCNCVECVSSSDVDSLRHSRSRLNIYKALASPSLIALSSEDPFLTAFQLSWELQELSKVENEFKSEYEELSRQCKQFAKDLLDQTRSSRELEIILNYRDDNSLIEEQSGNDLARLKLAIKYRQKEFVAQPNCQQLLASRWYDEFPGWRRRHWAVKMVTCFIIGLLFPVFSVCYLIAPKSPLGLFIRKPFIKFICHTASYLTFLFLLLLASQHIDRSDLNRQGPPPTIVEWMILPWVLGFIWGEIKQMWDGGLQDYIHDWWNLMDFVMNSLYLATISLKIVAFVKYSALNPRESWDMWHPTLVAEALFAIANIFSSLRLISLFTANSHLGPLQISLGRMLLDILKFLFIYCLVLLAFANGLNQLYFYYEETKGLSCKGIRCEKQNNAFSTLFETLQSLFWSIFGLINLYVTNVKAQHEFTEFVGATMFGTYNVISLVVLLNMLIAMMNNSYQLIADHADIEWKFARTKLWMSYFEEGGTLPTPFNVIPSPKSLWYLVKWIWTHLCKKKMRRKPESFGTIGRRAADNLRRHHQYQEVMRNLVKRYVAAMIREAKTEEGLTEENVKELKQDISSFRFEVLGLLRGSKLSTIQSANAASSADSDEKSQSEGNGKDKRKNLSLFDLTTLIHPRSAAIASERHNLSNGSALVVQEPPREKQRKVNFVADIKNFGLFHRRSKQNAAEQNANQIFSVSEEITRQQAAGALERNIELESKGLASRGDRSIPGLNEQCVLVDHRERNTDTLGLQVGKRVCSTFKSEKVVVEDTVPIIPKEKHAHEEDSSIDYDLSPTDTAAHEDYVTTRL
As to the kind of experiment: TRPC4 positive allosteric modulators, dose response, cell-based, HEK293 TRPC4/mu-opioid, Fluo-4 calcium, EC20 DAMGO (AID 434941).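 Further: HEK293 cells coexpressing TRPC4 and mu opioid receptor stimulated by EC20 DAMGO.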 Type of assay: functional.

The target of assay [2] is Intestinal-type alkaline phosphatase (Homo sapiens, UniProt P09923). The assay is described as follows: Dose Response confirmation of uHTS hits from a small molecule inhibitors of human intestinal alkaline phosphatase via a luminescent assay. [Related pubchem assays (depositor defined):AID2544, AID2574]. The class given is functional.
Sequence of Intestinal-type alkaline phosphatase (P09923 whole entry): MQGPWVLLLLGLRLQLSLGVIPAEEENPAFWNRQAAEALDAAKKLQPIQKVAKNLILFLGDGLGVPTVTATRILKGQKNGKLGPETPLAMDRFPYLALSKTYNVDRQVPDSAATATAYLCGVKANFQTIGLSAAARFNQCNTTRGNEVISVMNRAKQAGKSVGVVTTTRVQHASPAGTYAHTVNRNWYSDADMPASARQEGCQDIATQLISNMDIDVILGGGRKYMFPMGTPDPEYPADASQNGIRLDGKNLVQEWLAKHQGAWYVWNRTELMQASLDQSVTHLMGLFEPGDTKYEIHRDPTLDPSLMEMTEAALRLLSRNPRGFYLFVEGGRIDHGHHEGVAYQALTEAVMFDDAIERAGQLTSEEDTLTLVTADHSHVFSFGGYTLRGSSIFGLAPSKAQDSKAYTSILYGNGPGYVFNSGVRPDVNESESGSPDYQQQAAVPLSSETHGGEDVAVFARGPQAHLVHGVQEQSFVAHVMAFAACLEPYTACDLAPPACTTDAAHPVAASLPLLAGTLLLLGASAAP
The test system of a further assay is HeLa. The assay is described as follows: HeLa cell cytotoxicity, dose response, cytotoxicity control, 24 h, cherry-picked samples (AID 504726).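 Further: potency for cytotoxicity as loss of luminescence signal.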 The class given is functional, cell-based. Conditions: Homo sapiens.
The nature of assay [3]: control 3'UTR Renilla luciferase suppression, dose response, counter-screen for Shn3 inhibitor project, cell-based, Clone20-Shn3RL, cherry-picked (AID 624133). Type of assay: functional. A general note: A counterscreen serves to expose hits that act by an unwanted route or on another target.
Assay [4] in a line: Shn3 3'UTR reporter inhibitors, dose response, cell-based, Clone20 osteoblasts, firefly luciferase, cherry-picked (AID 624132).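 Further: firefly luciferase luminescence from reporter carrying the Shn3 3'UTR in osteoblasts.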 Type of assay: functional.
Assay [5] can be described thus: Luminescence Cell-Based Dose Retest to Confirm Inhibitors of Cancer Stem Cells. [Related pubchem assays (depositor defined):AID2717, AID2721]. Type of assay: functional. The settings on record: Homo sapiens.
The target of a further assay is Hexokinase (Trypanosoma brucei, UniProt Q38C41). As to the kind of experiment: Confirmation assay for inhibitors of Trypanosoma brucei hexokinase 1-Analogue-first series. [Related pubchem assays (depositor defined):AID1430, AID1632, AID2516, AID2560, AID2579, AID2600, AID449725, AID492951]. The class given is functional.
Sequence of Hexokinase (Q38C41 whole entry): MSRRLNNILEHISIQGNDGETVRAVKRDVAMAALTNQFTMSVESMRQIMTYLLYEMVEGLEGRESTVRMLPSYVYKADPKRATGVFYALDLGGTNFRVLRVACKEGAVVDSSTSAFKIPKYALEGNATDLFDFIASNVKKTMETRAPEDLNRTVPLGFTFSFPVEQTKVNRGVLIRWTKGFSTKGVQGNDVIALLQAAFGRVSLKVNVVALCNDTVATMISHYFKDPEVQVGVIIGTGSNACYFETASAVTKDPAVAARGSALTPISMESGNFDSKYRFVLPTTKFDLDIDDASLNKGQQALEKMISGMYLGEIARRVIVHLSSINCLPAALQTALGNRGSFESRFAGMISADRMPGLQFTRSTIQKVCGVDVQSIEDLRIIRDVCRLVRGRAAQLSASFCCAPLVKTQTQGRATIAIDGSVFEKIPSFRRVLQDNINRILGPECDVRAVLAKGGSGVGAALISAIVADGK
For assay [6], the target named is T2, Sentrin-specific protease 6 (Homo sapiens, UniProt Q9GZR1).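 Further: Luminescence-based dose-response confirmatory assay of SENP6 inhibition, following up an ultra-high-throughput screen.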
T2 sequence (Q9GZR1 whole entry): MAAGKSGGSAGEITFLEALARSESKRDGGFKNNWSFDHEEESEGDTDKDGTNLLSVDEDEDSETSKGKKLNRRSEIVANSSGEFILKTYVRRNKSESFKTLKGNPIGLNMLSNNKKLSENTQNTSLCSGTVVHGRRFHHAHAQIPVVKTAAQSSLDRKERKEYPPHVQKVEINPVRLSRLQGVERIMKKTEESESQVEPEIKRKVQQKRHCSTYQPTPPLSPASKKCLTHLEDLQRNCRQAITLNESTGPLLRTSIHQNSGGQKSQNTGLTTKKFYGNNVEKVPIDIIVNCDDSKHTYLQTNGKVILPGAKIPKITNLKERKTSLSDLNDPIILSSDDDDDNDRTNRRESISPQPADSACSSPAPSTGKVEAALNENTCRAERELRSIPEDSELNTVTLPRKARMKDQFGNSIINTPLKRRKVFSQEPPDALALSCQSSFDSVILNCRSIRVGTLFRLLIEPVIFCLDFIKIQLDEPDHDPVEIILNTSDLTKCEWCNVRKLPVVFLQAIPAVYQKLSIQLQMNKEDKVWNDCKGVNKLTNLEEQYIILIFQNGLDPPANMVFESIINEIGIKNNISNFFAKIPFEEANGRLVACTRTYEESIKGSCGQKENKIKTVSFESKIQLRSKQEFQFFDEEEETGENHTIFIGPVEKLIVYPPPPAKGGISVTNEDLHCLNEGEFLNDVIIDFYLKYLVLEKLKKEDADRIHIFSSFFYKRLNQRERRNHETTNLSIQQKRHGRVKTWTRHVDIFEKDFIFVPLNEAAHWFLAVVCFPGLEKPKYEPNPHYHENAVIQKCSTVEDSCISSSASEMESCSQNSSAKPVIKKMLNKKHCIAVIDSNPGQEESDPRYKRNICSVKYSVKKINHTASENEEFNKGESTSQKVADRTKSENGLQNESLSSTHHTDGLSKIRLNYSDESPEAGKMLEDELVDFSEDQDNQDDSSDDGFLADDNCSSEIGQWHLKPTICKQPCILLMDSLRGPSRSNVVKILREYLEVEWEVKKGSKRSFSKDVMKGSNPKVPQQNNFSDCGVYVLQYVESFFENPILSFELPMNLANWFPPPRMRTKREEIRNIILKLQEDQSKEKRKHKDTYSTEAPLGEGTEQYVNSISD
The class given is functional.

Another assay deals with T3, Caspase-3 (Homo sapiens, UniProt P42574).
T3 sequence (P42574 whole entry): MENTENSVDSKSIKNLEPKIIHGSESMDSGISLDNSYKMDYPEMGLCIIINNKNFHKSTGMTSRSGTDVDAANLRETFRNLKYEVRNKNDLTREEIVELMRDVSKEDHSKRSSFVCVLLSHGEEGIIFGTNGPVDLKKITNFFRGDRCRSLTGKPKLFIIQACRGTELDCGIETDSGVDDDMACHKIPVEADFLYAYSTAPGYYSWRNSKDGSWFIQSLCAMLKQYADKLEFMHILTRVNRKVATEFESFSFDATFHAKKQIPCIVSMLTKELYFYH
Type of assay: functional.

In assay [7] the target is T4, Sentrin-specific protease 7 (Homo sapiens, UniProt Q9BQF6).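 Further: Luminescence-based dose-response confirmation of ultra-high-throughput screening hits, measuring inhibition of SENP7.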
T4 sequence (Q9BQF6 whole entry): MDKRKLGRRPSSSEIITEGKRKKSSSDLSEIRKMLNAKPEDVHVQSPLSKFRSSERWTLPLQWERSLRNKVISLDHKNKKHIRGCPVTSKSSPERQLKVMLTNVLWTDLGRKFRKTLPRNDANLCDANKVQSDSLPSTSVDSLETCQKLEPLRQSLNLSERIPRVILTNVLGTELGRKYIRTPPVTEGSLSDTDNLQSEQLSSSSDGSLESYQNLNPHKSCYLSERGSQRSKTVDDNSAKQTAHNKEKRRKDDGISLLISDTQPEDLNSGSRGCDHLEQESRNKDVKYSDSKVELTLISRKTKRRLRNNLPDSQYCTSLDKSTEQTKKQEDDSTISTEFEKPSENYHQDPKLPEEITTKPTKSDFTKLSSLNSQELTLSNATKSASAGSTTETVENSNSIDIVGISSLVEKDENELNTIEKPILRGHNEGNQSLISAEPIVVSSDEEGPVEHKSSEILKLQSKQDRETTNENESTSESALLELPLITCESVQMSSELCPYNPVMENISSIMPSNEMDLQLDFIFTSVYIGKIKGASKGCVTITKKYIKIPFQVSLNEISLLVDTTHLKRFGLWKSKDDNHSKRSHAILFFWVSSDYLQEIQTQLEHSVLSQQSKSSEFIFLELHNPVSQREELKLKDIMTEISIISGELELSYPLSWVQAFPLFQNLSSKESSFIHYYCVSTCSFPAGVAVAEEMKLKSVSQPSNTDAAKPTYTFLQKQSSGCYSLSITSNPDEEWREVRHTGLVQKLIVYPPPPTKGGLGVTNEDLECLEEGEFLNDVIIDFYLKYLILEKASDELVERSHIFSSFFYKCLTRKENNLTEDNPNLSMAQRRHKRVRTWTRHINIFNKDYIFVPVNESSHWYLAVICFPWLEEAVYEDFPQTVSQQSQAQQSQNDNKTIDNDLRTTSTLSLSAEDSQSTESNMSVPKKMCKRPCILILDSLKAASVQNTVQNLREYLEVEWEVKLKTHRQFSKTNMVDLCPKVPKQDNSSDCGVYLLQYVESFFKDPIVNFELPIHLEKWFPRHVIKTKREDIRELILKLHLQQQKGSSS
The class given is functional.

The target in assay [8] is T5, Sentrin-specific protease 8 (Homo sapiens, UniProt Q96LD8).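 Further: luminescence read-out of SENP8 inhibition, dose-response confirmation following an ultra-high-throughput screen.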
T5 sequence (Q96LD8 whole entry): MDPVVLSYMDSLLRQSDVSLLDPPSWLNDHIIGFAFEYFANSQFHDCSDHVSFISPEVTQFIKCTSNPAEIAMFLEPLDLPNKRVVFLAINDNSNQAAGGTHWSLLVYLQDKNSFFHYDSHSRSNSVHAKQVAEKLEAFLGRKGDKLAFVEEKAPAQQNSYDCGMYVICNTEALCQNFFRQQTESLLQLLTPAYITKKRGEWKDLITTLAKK
Type of assay: functional.

The EC50 is the midpoint of the concentration-response curve. For `O=C(Nc1cccc(Cl)c1)N1CCN(C/C=C/c2ccccc2)CC1`, in [1], the EC50 is 0.12 µM (active).
As usually defined, the IC50 is the concentration needed to halve the response being measured. Regarding `Cc1ccc(NC(=O)c2ccncc2)cc1[N+](=O)[O-]`, in [2], the IC50 was > 100 µM (inactive).
Broadly, the AC50 is the midpoint of the concentration-response curve, whichever way the signal moves. On to `CCc1sc(C(=O)NNC(=O)CNC(=O)c2ccccc2F)cc1C`, for which, in the assay with HeLa, the half-maximal activity concentration (AC50) is 73 µM (active).
Regarding `Cc1ccc(-c2nnc(N3CCC(C)CC3)c3ccccc23)cc1C`, the AC50 in assay [3] was 8.42 µM (active); in [4] it was 6.41 µM (active); in assay [5] it was 4.62 µM (active). Moreover, in assay [1], the concentration giving a half-maximal response (EC50) is 3.35 µM (active).
Take `COc1ccc(C(=O)Nc2cc(F)cc(F)c2O)cc1`: the IC50 on Hexokinase is > 25 µM (inactive).
Take `COc1ccc(-c2cc3ccccc3[nH]2)cc1`: the IC50 in assay [6] is 34.5 µM (active); at Caspase-3, 14.1 µM (active); at Hexokinase it was > 25 µM (inactive); in [7], 18.2 µM (active); in assay [8] it was 45.2 µM (active).
